Test results: US20140323500A1, “NADPH OXIDASE 4 INHIBITORS AND USE THEREOF” (GENKYOTEX SA, priority 2011, published 2014)
pKi: −log10 of the molar value.

Target: T1, human Nox4 (Homo sapiens, UniProt Q9NPH5)
T1 construct: expressed in transfected cells; host or cells: T-REx-293 (hNOX4 T-REx-293), tetracycline-induced; membrane fraction
T1 sequence (Q9NPH5 1-578): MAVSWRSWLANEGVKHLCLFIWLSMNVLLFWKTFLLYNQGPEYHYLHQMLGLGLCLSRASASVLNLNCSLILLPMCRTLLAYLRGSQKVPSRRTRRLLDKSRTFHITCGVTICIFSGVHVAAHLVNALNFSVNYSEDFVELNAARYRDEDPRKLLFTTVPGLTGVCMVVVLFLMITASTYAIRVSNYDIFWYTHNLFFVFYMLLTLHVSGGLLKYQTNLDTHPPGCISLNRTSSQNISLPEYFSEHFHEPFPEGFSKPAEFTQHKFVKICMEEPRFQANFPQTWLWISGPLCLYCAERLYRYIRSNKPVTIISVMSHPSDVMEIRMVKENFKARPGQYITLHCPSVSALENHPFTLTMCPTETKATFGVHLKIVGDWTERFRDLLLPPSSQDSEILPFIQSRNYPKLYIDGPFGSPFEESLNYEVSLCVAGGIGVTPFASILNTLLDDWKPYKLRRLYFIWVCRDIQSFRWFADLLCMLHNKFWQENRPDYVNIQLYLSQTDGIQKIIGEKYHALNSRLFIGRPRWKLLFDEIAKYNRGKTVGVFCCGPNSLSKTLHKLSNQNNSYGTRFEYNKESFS
T1 sequence (P13498 2-195 partner limits assumed): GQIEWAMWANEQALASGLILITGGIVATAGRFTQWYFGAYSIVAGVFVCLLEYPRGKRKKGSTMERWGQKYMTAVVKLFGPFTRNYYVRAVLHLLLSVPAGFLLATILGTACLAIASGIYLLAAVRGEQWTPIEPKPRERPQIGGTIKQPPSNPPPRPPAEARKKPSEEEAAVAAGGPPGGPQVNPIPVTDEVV
Assay: ROS production by membranes expressing human Nox4, cell-free Amplex Red assay
Assay type: biochemical
Conditions: cell-free membranes, Amplex Red; Cheng-Prusoff; average of at least three experiments in triplicate; read-out: Ki hNox4
Outline: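 Membranes from tetracycline-induced (1 μg/ml, 24 h) T-REx cells overexpressing human Nox4, incubated in PBS with Amplex Red, HRP and co-factors; NADPH starts ROS production. Compounds 1 nM-100 μM, 20 min at 37° C.; fluorescence (ex 544/em 590 nm) over 10 min; Ki via Cheng-Prusoff, ≥3 experiments in triplicate.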

pKi: 7.12
SMILES: COc1ccc(-c2c3c(=O)n(-c4ccccc4OC)[nH]c3cc(=O)n2Cc2cccnc2)c(F)c1 [Compound (1), 4-(2-fluoro-4-methoxyphenyl)-2-(2-methoxyphenyl)-5-(pyridin-3-ylmethyl)-1H-pyrazolo[4,3-c]pyridine-3,6(2H,5H)-dione]
